From article PMC7962978, “PSMA-D4 Radioligand for Targeted Therapy of Prostate Cancer: Synthesis, Characteristics and Preliminary Assessment of Biological Properties” (International Journal of Molecular Sciences, 2021)
“And” between values parts separate entries of the source, which are not always exact repeats. Identical values can stand only once.

Columns and labels:
LNCaP cells = test: Cell uptake (total binding) and internalization in LNCaP cells; assay type: cell-based, human; settings: 37 °C, 2 h
Procedure: To determine cell uptake and internalization of [^177Lu]Lu-PSMA-D4 and [^90Y]Y-PSMA-D4, LNCaP cells (5 × 10^5 cells well^−1) were incubated in un-supplemented RPMI 1640 medium with one concentration of tested radioligands on 12-well plates in 37 °C per 2 h. After the appropriate time, the medium was removed, and cells were washed twice using phosphate buffer saline (PBS, IITD PAN, Wroclaw, Poland). The cells were treated twice with 1 mL of 50 mM glycine in 0.1 M NaCl at a pH of 2.8 and incubated for 5 min at room temperature to collect extracellularly bound compound. The internalization was determined by measuring the radioactivity of 1mL of 1 M NaOH used for cell lysis. Total binding was calculated as a sum of the membrane and internalized fractions measured using Wallac Wizard 1470 γ counter. As a control, [^177Lu]Lu-PSMA-617 and [^68Ga]Ga-PSMA-11 were used.

[1] = Blood pharmacokinetics, one-phase model, healthy rats; assay type: in vivo; settings: healthy rats (data not presented)
PSMA antigen = biological target: T1, PSMA antigen (Homo sapiens, UniProt Q04609); test: Saturation radioligand binding assay on LNCaP (PSMA positive) and PC3 (PSMA negative) cell membranes; settings: for Kd: LNCaP cell membranes, 2 h, 37 °C; for Specific Binding: total binding on LNCaP minus non-specific binding on PC3 membranes
T1 construct: PSMA antigen expressed on LNCaP cell membranes; endogenous in cells; host or cells: LNCaP cell membranes (PC3 membranes as PSMA-negative control)
T1 sequence (Q04609 whole entry): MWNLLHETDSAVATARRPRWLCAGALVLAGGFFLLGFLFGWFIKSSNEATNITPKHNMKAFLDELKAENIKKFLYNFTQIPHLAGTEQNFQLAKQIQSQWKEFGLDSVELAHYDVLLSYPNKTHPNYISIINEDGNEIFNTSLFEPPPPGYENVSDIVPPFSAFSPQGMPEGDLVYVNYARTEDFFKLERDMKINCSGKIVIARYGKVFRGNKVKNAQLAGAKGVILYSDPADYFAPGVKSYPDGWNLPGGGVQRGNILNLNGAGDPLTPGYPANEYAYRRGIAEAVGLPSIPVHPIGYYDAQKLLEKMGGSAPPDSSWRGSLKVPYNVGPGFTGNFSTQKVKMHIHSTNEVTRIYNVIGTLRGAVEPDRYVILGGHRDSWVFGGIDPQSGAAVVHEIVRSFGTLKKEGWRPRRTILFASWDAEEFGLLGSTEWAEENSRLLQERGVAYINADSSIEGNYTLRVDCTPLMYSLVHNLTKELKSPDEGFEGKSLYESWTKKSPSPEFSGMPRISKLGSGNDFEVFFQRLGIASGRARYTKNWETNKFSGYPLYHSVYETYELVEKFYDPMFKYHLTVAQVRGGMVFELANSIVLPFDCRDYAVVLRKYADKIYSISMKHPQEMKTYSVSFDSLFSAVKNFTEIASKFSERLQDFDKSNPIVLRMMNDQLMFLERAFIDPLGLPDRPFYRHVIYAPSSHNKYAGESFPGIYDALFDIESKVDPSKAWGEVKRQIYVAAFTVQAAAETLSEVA
Procedure: The equilibrium constant (KD) was determined by a saturation binding experiment performed in PSMA positive LNCaP and PSMA negative PC3 cell membranes isolated according to the procedure developed by Fichna et al.. The 50 mcL of LNCaP and PC3 cell membranes were seeded on special MultiScreen™ 96 well filter plates (Merck, Warsaw, Poland) and incubated for 2 h with increasing concentration of [^177Lu]Lu-PSMA-D4, [^90Y]Y-PSMA-D4, and […] (0.016–194 nM) at 37 °C. After incubation, the unbound radiocomplexes were filtered under vacuum, and the membranes were washed twice using PBS. The filters containing membranes with the attached radiotracer were extruded into tubes using MultiScreen Multile Punch (Merck). The number of associated inhibitors was determined by measuring the radioactivity of squeezed filters using Wallac Wizard 1470 γ counter. The KD and Bmax were calculated by nonlinear regression using the GraphPad Prism statistic program.

[2] = Lipophilicity determination (logD), shake-flask method; assay type: physicochemical; settings: n-octanol / PBS pH 7.4, shake-flask
Procedure: The partition coefficient logD of the radioligands was determined by the shake-flask method. The solution of 10 to 50 MBq of radiolabeled PSMA ligands (D-4, 617, 11, I&T) in 1.0 mL of phosphate-buffered saline (PBS, pH 7.4) was added to 1.0 mL of presaturated n-octanol solution (n = 3). Vials were shaken vigorously for 10 min. To achieve quantitative phase separation, the vials were centrifuged at 1600 rpm for 5 min. The radioactivity concentration in a defined volume of both the aqueous and the organic phase in six replicates each was measured in a γ-counter (Wizard 1470, Wallac, Turku, Finland). The partition coefficient was calculated as the logarithm of the ratio between counts per minute (cpm) measured in the n-octanol phase to the PBS phase counts.

[3] = Blood pharmacokinetics, one-phase decay model, LNCaP tumor-bearing mice; assay type: in vivo; settings: i.v.
Procedure: The pharmacokinetic analysis of the [^47Sc]Sc-PSMA-D4 was based on the curves of the %ID g^−1 accumulated in the blood. The pharmacokinetic parameters were determined according to a one-phase decay model. The following parameters were used: K (rate constant) and half-life calculated as ln(2)/K.
For blood activity data, a one-phase exponential decay model was used to model the percentage of remaining activity (%ID g^−1) as a time post-injection function.

LNCaP tumor-bearing mice = test: Ex vivo biodistribution in mice bearing LNCaP tumor
Procedure: An experimental tumor murine model was induced using LNCaP cell, which grew to 80–90% confluence before trypsinization and formulation in Matrixgel™ Basement Membrane Matrix (Bedford, MA, USA) for implantation into mice. The mice were subcutaneously injected in the shoulder with 200 mcL bolus containing a suspension of 10^6 freshly harvested cell line LNCaP in Matrixgel™. This procedure was performed under anaesthesia with 2% isoflurane. The animals were kept under pathogen-free condition, and experiments were performed 2–3 weeks later when a tumor reached a volume of approximately 150 ± 60 mm^3. Then, the animals were randomized into two groups (25 mice per group, five mice per time point): Group 1, treated with a single intravenous injection of [^90Y]Y-PSMA-D4 (0.1 mL, 0.1 mcg, 15.5 MBq, SA 16.7 GBq mg^−1 = 17.2 GBq mcmol^−1) and Group 2, treated with a single intravenous injection of [^47Sc]Sc-PSMA-D4 (0.1 mL, 0.19 mcg, 10 MBq, SA 4.8 GBq mg^−1 = 4.57 GBq mcmol^−1).
At 1, 2, 4, 6, 24, and 48 h after injection, the animals were euthanized by cervical dislocation and dissected. Selected organs and tissues were assayed for their radioactivity and weighted. The physiological distribution was calculated and expressed in terms of the percentage of administrated radioactivity found in each of the selected organs or tissues per gram (%ID g^−1).
Results are provided as mean ± SD. The results of physiological distribution are presented as a percentage of the dose administered per gram of tissue (%ID g^−1) as average value with standard deviation (%ID g^−1; mean ± standard deviation (SD)) with n representing the number of animals per group. Data were statistically analyzed using GraphPad Prism version 8.0.0 for Window.

For `O=C([O-])CN1CCN(CC(=O)[O-])CCN(CC(=O)NCC2CCC(C(=O)NC(Cc3c[nH]c4ccccc34)C(=O)NCCCCC(NC(=O)NC(CCC(=O)O)C(=O)O)C(=O)O)CC2)CCN(CC(=O)[O-])CC1.[177Lu+3]` (centres unmarked) [[^177Lu]Lu-PSMA-D4], the Internalization (LNCaP cells) was 37.0 ± 3.3%, the “Total Binding” value (LNCaP cells) was 10.2% and the blood half-life [1] was 33 min. For the same compound, the Kd (PSMA antigen) was 2.4 ± 0.3 nM, the “Specific Binding” value (PSMA antigen) was 99.1 ± 0.3% and the logD [2] was −5.16 ± 0.07.
With `O=C([O-])CN1CCN(CC(=O)[O-])CCN(CC(=O)NCC2CCC(C(=O)NC(Cc3c[nH]c4ccccc34)C(=O)NCCCCC(NC(=O)NC(CCC(=O)O)C(=O)O)C(=O)O)CC2)CCN(CC(=O)[O-])CC1.[47Sc+3]` (centres unmarked) [[^47Sc]Sc-PSMA-D4] the blood half-life [3] was 10.4 min and 10.2 min, the Kd (PSMA antigen) was 3.4 ± 2 nM and the “Specific Binding” value (PSMA antigen) was 98.8 ± 0.9%. The “T/B (ratio tumor to blood)” value (LNCaP tumor-bearing mice; 1 h after i.v. injection) was 31.6, the “T/K (ratio tumor to kidneys)” value (LNCaP tumor-bearing mice; 1 h after i.v. injection) was 1.0 and the “T/M (ratio tumor to muscle)” value (LNCaP tumor-bearing mice; 1 h after i.v. injection) was 135.2. For the same compound, the blood (LNCaP tumor-bearing mice; 1 h after i.v. injection) was 0.29 ± 0.08 %ID g^−1, the kidneys (LNCaP tumor-bearing mice; 1 h after i.v. injection) was 9.46 ± 1.44 %ID g^−1 and the large intestine (LNCaP tumor-bearing mice; 1 h after i.v. injection) was 0.09 ± 0.03 %ID g^−1. For the same compound, the liver (LNCaP tumor-bearing mice; 1 h after i.v. injection) was 0.13 ± 0.02 %ID g^−1, the muscle (LNCaP tumor-bearing mice; 1 h after i.v. injection) was 0.10 ± 0.06 %ID g^−1 and the small intestine (LNCaP tumor-bearing mice; 1 h after i.v. injection) was 0.35 ± 0.19 %ID g^−1. The spleen (LNCaP tumor-bearing mice; 1 h after i.v. injection) was 0.52 ± 0.19 %ID g^−1, the stomach (LNCaP tumor-bearing mice; 1 h after i.v. injection) was 0.23 ± 0.09 %ID g^−1 and the tumor (LNCaP tumor-bearing mice; 1 h after i.v. injection) was 9.24 ± 5.13 %ID g^−1. For the same compound, the urine (LNCaP tumor-bearing mice; 1 h after i.v. injection) was 89.23 ± 2.63 %ID, the “T/B (ratio tumor to blood)” value (LNCaP tumor-bearing mice; 4 h after i.v. injection) was 120.9 and the “T/K (ratio tumor to kidneys)” value (LNCaP tumor-bearing mice; 4 h after i.v. injection) was 4.3. The “T/M (ratio tumor to muscle)” value (LNCaP tumor-bearing mice; 4 h after i.v. injection) was 24.3, the blood (LNCaP tumor-bearing mice; 4 h after i.v. injection) was 0.08 ± 0.04 %ID g^−1 and the kidneys (LNCaP tumor-bearing mice; 4 h after i.v. injection) was 2.16 ± 0.86 %ID g^−1. For the same compound, the large intestine (LNCaP tumor-bearing mice; 4 h after i.v. injection) was 0.70 ± 0.48 %ID g^−1, the liver (LNCaP tumor-bearing mice; 4 h after i.v. injection) was 0.08 ± 0.04 %ID g^−1 and the muscle (LNCaP tumor-bearing mice; 4 h after i.v. injection) was 0.39 ± 0.17 %ID g^−1. For the same compound, the small intestine (LNCaP tumor-bearing mice; 4 h after i.v. injection) was 0.41 ± 0.30 %ID g^−1, the spleen (LNCaP tumor-bearing mice; 4 h after i.v. injection) was 0.57 ± 0.31 %ID g^−1 and the stomach (LNCaP tumor-bearing mice; 4 h after i.v. injection) was 0.39 ± 0.17 %ID g^−1. The tumor (LNCaP tumor-bearing mice; 4 h after i.v. injection) was 9.22 ± 2.21 %ID g^−1, the urine (LNCaP tumor-bearing mice; 4 h after i.v. injection) was 93.42 ± 2.07 %ID and the “T/B (ratio tumor to blood)” value (LNCaP tumor-bearing mice; 6 h after i.v. injection) was 207.6. For the same compound, the “T/K (ratio tumor to kidneys)” value (LNCaP tumor-bearing mice; 6 h after i.v. injection) was 6.1, the “T/M (ratio tumor to muscle)” value (LNCaP tumor-bearing mice; 6 h after i.v. injection) was 251.0 and the blood (LNCaP tumor-bearing mice; 6 h after i.v. injection) was 0.04 ± 0.01 %ID g^−1. It also gave a kidneys (LNCaP tumor-bearing mice; 6 h after i.v. injection) of 1.42 ± 0.28 %ID g^−1, a large intestine (LNCaP tumor-bearing mice; 6 h after i.v. injection) of 0.69 ± 0.17 %ID g^−1 and a liver (LNCaP tumor-bearing mice; 6 h after i.v. injection) of 0.06 ± 0.01 %ID g^−1. For the same compound, the muscle (LNCaP tumor-bearing mice; 6 h after i.v. injection) was 0.03 ± 0.02 %ID g^−1, the small intestine (LNCaP tumor-bearing mice; 6 h after i.v. injection) was 0.11 ± 0.07 %ID g^−1 and the spleen (LNCaP tumor-bearing mice; 6 h after i.v. injection) was 0.08 ± 0.04 %ID g^−1. For the same compound, the stomach (LNCaP tumor-bearing mice; 6 h after i.v. injection) was 0.08 ± 0.09 %ID g^−1, the tumor (LNCaP tumor-bearing mice; 6 h after i.v. injection) was 8.65 ± 3.19 %ID g^−1 and the urine (LNCaP tumor-bearing mice; 6 h after i.v. injection) was 94.89 ± 1.34 %ID. The “T/B (ratio tumor to blood)” value (LNCaP tumor-bearing mice; 24 h after i.v. injection) was 467.3, the “T/K (ratio tumor to kidneys)” value (LNCaP tumor-bearing mice; 24 h after i.v. injection) was 18.4 and the “T/M (ratio tumor to muscle)” value (LNCaP tumor-bearing mice; 24 h after i.v. injection) was 229.0. It also gave a blood (LNCaP tumor-bearing mice; 24 h after i.v. injection) of 0.01 ± 0.01 %ID g^−1, a kidneys (LNCaP tumor-bearing mice; 24 h after i.v. injection) of 0.29 ± 0.09 %ID g^−1 and a large intestine (LNCaP tumor-bearing mice; 24 h after i.v. injection) of 0.12 ± 0.12 %ID g^−1. It also gave a liver (LNCaP tumor-bearing mice; 24 h after i.v. injection) of 0.03 ± 0.01 %ID g^−1, a muscle (LNCaP tumor-bearing mice; 24 h after i.v. injection) of 0.02 ± 0.02 %ID g^−1 and a small intestine (LNCaP tumor-bearing mice; 24 h after i.v. injection) of 0.34 ± 0.18 %ID g^−1. The spleen (LNCaP tumor-bearing mice; 24 h after i.v. injection) was 0.04 ± 0.01 %ID g^−1, the stomach (LNCaP tumor-bearing mice; 24 h after i.v. injection) was 0.05 ± 0.06 %ID g^−1 and the tumor (LNCaP tumor-bearing mice; 24 h after i.v. injection) was 5.28 ± 3.01 %ID g^−1. For the same compound, the urine (LNCaP tumor-bearing mice; 24 h after i.v. injection) was 97.89 ± 1.22 %ID, the “T/B (ratio tumor to blood)” value (LNCaP tumor-bearing mice; 48 h after i.v. injection) was 78.8 and the “T/K (ratio tumor to kidneys)” value (LNCaP tumor-bearing mice; 48 h after i.v. injection) was 16.0. For the same compound, the “T/M (ratio tumor to muscle)” value (LNCaP tumor-bearing mice; 48 h after i.v. injection) was 66.7, the blood (LNCaP tumor-bearing mice; 48 h after i.v. injection) was 0.05 ± 0.03 %ID g^−1 and the kidneys (LNCaP tumor-bearing mice; 48 h after i.v. injection) was 0.26 ± 0.14 %ID g^−1. The large intestine (LNCaP tumor-bearing mice; 48 h after i.v. injection) was 1.63 ± 0.31 %ID g^−1, the liver (LNCaP tumor-bearing mice; 48 h after i.v. injection) was 0.04 ± 0.01 %ID g^−1 and the muscle (LNCaP tumor-bearing mice; 48 h after i.v. injection) was 0.06 ± 0.06 %ID g^−1. For the same compound, the small intestine (LNCaP tumor-bearing mice; 48 h after i.v. injection) was 0.45 ± 0.13 %ID g^−1, the spleen (LNCaP tumor-bearing mice; 48 h after i.v. injection) was 0.10 ± 0.09 %ID g^−1 and the stomach (LNCaP tumor-bearing mice; 48 h after i.v. injection) was 0.03 ± 0.04 %ID g^−1. The tumor (LNCaP tumor-bearing mice; 48 h after i.v. injection) was 4.11 ± 1.08 %ID g^−1 and the urine (LNCaP tumor-bearing mice; 48 h after i.v. injection) was 95.37 ± 1.89 %ID.
